Experimental data reported in US20250002475A1 (EPICS THERAPEUTICS, priority 2023, published 2025).

Each molecule was assayed against T1, recombinant METTL3/METTL14 complex (Homo sapiens, UniProt Q86U44) (assay: METTL3/14 Scintillation Proximity Assay (SPA), RNA methyltransferase activity). Details: 5.31 nM METTL3/14 complex, 250 nM RNA substrate, 1 μM 3H-SAM, 90 min; for compounds marked * best of the two separated forms.
T1 construct: purchased Active Motif 311970; host or cells: Sf9 cells
Type: biochemical

T1 sequence (Q86U44 whole entry): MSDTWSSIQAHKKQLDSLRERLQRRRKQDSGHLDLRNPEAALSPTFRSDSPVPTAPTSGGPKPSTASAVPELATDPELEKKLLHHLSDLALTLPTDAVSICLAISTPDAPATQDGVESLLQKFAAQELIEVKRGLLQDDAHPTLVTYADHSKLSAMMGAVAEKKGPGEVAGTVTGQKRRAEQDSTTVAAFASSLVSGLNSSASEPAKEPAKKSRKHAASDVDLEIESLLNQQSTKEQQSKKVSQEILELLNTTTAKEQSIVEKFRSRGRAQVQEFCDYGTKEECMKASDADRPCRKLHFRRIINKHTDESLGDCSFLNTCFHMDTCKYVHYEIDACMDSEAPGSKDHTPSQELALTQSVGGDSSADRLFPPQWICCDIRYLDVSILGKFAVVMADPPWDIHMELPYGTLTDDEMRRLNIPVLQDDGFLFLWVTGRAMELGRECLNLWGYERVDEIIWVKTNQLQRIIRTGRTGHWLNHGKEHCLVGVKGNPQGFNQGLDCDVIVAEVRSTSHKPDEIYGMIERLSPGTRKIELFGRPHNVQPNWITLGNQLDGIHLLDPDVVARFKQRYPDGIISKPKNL
T1 sequence (Q9HCE5 whole entry partner): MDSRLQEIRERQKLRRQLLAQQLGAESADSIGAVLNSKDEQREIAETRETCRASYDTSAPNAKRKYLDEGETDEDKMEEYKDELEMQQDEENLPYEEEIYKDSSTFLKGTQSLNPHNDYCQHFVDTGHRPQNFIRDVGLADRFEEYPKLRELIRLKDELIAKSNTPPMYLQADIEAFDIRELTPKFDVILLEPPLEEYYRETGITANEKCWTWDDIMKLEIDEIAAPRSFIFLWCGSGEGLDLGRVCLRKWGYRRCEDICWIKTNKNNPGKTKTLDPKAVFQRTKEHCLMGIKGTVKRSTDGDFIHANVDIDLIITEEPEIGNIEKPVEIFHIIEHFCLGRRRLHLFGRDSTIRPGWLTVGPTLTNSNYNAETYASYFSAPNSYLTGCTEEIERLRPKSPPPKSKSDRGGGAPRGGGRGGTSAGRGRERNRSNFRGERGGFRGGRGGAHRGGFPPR

IC50 [nM] | Structure (SMILES)
≤ 50 | CC(n1cc(-c2cncc(Cl)c2)nn1)n1ccc(N2CCC[C@@H](NCC3CCC3)C2)cc1=O (mixture of isomers) [Compound 078, 1-(1-(4-(5-chloropyridin-3-yl)-1H-1,2,3-triazol-1-yl)ethyl)-4-((R)-3-((cyclobutylmethyl)amino)piperidin-1-yl)pyridin-2(1H)-one]
≤ 50 | Cc1cncc(-c2cn(C(C)n3ccc(N4CCC[C@@H](NCC5CCC5)C4)cc3=O)nn2)c1 (mixture of isomers) [Compound 080, 4-((R)-3-((cyclobutylmethyl)amino)piperidin-1-yl)-1-(1-(4-(5-methylpyridin-3-yl)-1H-1,2,3-triazol-1-yl)ethyl)pyridin-2(1H)-one]
≤ 50 | CNc1ccn2c(=O)cc(C(=O)NC(C)c3ccc(N4CCC[C@@H](NCC5CCC5)C4)nn3)nc2c1 (mixture of isomers) [Compound 091, N-(1-(6-((R)-3-((cyclobutylmethyl)amino)piperidin-1-yl)pyridazin-3-yl)ethyl)-8-(methylamino)-4-oxo-4H-pyrido[1,2-a]pyrimidine-2-carboxamide]
≤ 50 | COc1ccc(C(=O)NC(C)c2ccc(N3CCC[C@@H](NCC4CCC4)C3)nn2)c2cn[nH]c12 (mixture of isomers) [Compound 092, N-(1-(6-((R)-3-((cyclobutylmethyl)amino)piperidin-1-yl)pyridazin-3-yl)ethyl)-7-methoxy-1H-indazole-4-carboxamide]
≤ 50 | CNc1cncc(-c2cn(C(C)n3ccc(N4CCC[C@@H](NCC5CCC5)C4)cc3=O)nn2)c1 (mixture of isomers) [Compound 096, 4-((R)-3-((cyclobutylmethyl)amino)piperidin-1-yl)-1-(1-(4-(5-(methylamino)pyridin-3-yl)-1H-1,2,3-triazol-1-yl)ethyl)pyridin-2(1H)-one]
≤ 50 | CC(c1ccc(N2CCC[C@@H](NCC3CCC3)C2)cn1)n1cc(-c2cc(=O)n3ccccc3n2)nn1 (mixture of isomers) [Compound 099, 2-(1-(1-(5-((R)-3-((cyclobutylmethyl)amino)piperidin-1-yl)pyridin-2-yl)ethyl)-1H-1,2,3-triazol-4-yl)-4H-pyrido[1,2-a]pyrimidin-4-one]
≤ 50 | CCOc1cncc(-c2cn(C(C)n3ccc(N4CCC[C@@H](NCC5CCC5)C4)cc3=O)nn2)c1 (mixture of isomers) [Compound 103, 4-((R)-3-((cyclobutylmethyl)amino)piperidin-1-yl)-1-(1-(4-(5-ethoxypyridin-3-yl)-1H-1,2,3-triazol-1-yl)ethyl)pyridin-2(1H)-one]
≤ 50 | COc1cncc(-c2nnn(C(C)n3ccc(N4CCC[C@@H](NCC5CCC5)C4)cc3=O)n2)c1 (mixture of isomers) [Compound 106, 4-((R)-3-((cyclobutylmethyl)amino)piperidin-1-yl)-1-(1-(5-(5-methoxypyridin-3-yl)-2H-tetrazol-2-yl)ethyl)pyridin-2(1H)-one]
50 to 500 | CC(NC(=S)c1cc(=O)n2ccccc2n1)c1ccc(N2CCC[C@@H](NCC3CCC3)C2)nn1 (mixture of isomers) [Compound 111, N-(1-(6-((R)-3-((cyclobutylmethyl)amino)piperidin-1-yl)pyridazin-3-yl)ethyl)-4-oxo-4H-pyrido[1,2-a]pyrimidine-2-carbothioamide]
≤ 50 | CC(NC(=O)c1cc(=O)n2ccccc2n1)c1ccc(N2CCC[C@@H](NCC3CC3)C2)cn1 (mixture of isomers) [Compound 112, N-(1-(5-((R)-3-((cyclopropylmethyl)amino)piperidin-1-Yl)pyridin-2-yl)ethyl) -4-oxo-4H-pyrido[1,2-a]pyrimidine-2-carboxamide]
≤ 50 | COc1cncc(-n2cc(C(C)n3ccc(N4CCC[C@@H](NCC5CCC5)C4)cc3=O)cn2)c1 (mixture of isomers) [Compound 120, 4-((R)-3-((cyclobutylmethyl)amino)piperidin-1-yl)-1-(1-(1-(5-methoxypyridin-3-yl)-1H-pyrazol-4-yl)ethyl)pyridin-2(1H)-one]
≤ 50 | CNc1cnnc(-c2cn(C(C)n3ccc(N4CCC[C@@H](NCC5CCC5)C4)cc3=O)nn2)c1 (mixture of isomers) [Compound 122, 4-((R)-3-((cyclobutylmethyl)amino)piperidin-1-yl)-1-(1-(4-(5-(methylamino)pyridazin-3-yl)-1H-1,2,3-triazol-1-yl)ethyl)pyridin-2(1H)-one]
≤ 50 | CC(n1cc(-c2cncc(N3CCOCC3)c2)nn1)n1ccc(N2CCC[C@@H](NCC3CCC3)C2)cc1=O (mixture of isomers) [Compound 129, 4-((R)-3-((cyclobutylmethyl)amino)piperidin-1-yl)-1-(1-(4-(5-morpholinopyridin-3-yl)-1H-1,2,3-triazol-1-yl)ethyl)pyridin-2(1H)-one]
≤ 50 | COc1cncc(-c2cc(C(C)n3ccc(N4CCC[C@@H](NCC5CCC5)C4)cc3=O)on2)c1 (mixture of isomers) [Compound 130, 4-((R)-3-((cyclobutylmethyl)amino)piperidin-1-yl)-1-(1-(3-(5-methoxypyridin-3-yl)isoxazol-5-yl)ethyl)pyridin-2(1H)-one]
≤ 50 | COc1cncc(-n2cc(C(C)n3ccc(N4CCC[C@@H](NCC5CCC5)C4)cc3=O)nn2)c1 (mixture of isomers) [Compound 132, 4-((R)-3-((cyclobutylmethyl)amino)piperidin-1-yl)-1-(1-(1-(5-methoxypyridin-3-yl)-1H-1,2,3-triazol-4-yl)ethyl)pyridin-2(1H)-one]
≤ 50 | CC(c1ccc(N2CCC[C@@H](NCC3CCC3)C2)nn1)n1cc(-c2cncc(N(C)C)c2)nn1 (mixture of isomers) [Compound 133, 5-(1-(1-(6-((R)-3-((cyclobutylmethyl)amino)piperidin-1-yl)pyridazin-3-yl)ethyl)-1H-1,2,3-triazol-4-yl)-N,N-dimethylpyridin-3-amine]
≤ 50 | CC(n1cc(-c2cncc(-n3cccn3)c2)nn1)n1ccc(N2CCC[C@@H](NCC3CCC3)C2)cc1=O (mixture of isomers) [Compound 146, 1-(1-(4-(5-(1H-pyrazol-1-yl)pyridin-3-yl)-1H-1,2,3-triazol-1-yl)ethyl)-4-((R)-3-((cyclobutylmethyl)amino)piperidin-1-yl)pyridin-2(1H)-one]
50 to 500 | CC(C(=O)Nc1cncc(N(C)C)c1)n1ccc(N2CCC[C@@H](NCC3CCC3)C2)cc1=O (mixture of isomers) [Compound 162, 2-(4-((R)-3-((cyclobutylmethyl)amino)piperidin-1-yl)-2-oxopyridin-1(2H)-yl)-N-(5-(dimethylamino)pyridin-3-yl)propanamide]
50 to 500 | CC1CCCN1c1cncc(-c2cn(C(C)n3ccc(N4CCC[C@@H](NCC5CCC5)C4)cc3=O)nn2)c1 (mixture of isomers) [Compound 172]

IC50 [nM] | Structure (SMILES)
≤ 50 | COc1cncc(-c2cc(C(C)n3ccc(N4CCC[C@@H](NCC5CCC5)C4)cc3=O)sn2)c1 (mixture of isomers) [Compound 204, 4-((R)-3-((cyclobutylmethyl)amino)piperidin-1-yl)-1-(1-(3-(5-methoxypyridin-3-yl)isothiazol-5-yl)ethyl)pyridin-2(1H)-one]
≤ 50 | CC(c1cnn(-c2cc(N(C)C)cnn2)c1)n1ccc(N2CCC[C@@H](NCC3CC3)C2)cc1=O (mixture of isomers) [Compound 224, 4-((R)-3-((cyclopropylmethyl)amino)piperidin-1-yl)-1-(1-(1-(5-(dimethylamino)pyridazin-3-yl)-1H-pyrazol-4-yl)ethyl)pyridin-2(1H)-one]
≤ 50 | COc1cc(-c2cn(Cc3ccc(N4CCC[C@@H](NC5CCOC5)C4)nn3)nn2)c2cn[nH]c2c1 (single isomer, unassigned) [Compound 033]
≤ 50 | COc1cc(-c2cn(Cc3ccc(N4CCC[C@@H](NC(C)C5CC5)C4)nn3)nn2)c2cn[nH]c2c1 (single isomer, unassigned) [Compound 045]
≤ 50 | COc1cncc(-c2cn(C(c3ccc(N4CCC[C@@H](NCC5CCC5)C4)nn3)C(F)(F)F)nn2)c1 (single isomer, unassigned) [Compound 064]
≤ 50 | COc1cncc(-c2cn(C(c3ccc(N4CCC[C@@H](NCC5CCC5)C4)nn3)C3CC3)nn2)c1 (single isomer, unassigned) [Compound 084]
≤ 50 | COc1cncc(-c2cn(C(C)n3ccc(N4CCC[C@@H](NCC5CCC5)C4)cc3=O)nn2)n1 (single isomer, unassigned) [Compound 105]
≤ 50 | COc1cnc(C#N)c(-c2cn(C(C)n3ccc(N4CCC[C@@H](NCC5CCC5)C4)cc3=O)nn2)c1 (single isomer, unassigned) [Compound 109]
≤ 50 | CC(NC(=O)c1cc(=S)n2ccccc2n1)c1ccc(N2CCC[C@@H](NCC3CCC3)C2)nn1 (single isomer, unassigned) [Compound 110]
50 to 500 | CC(NC(=O)c1cc(=O)n2ccccc2n1)c1ccc(N2CCC[C@@H](NC3CCCC3)C2)cn1 (single isomer, unassigned) [Compound 117]
50 to 500 | COc1cnnc(-c2cn(C(C)c3ccc(N4CCC[C@@H](NCC5CCC5)C4)nn3)nn2)c1 (single isomer, unassigned) [Compound 137]
≤ 50 | CC(n1cc(-c2cncc(Br)c2)nn1)n1ccc(N2CCC[C@@H](NCC3CCC3)C2)cc1=O (single isomer, unassigned) [Compound 152]
≤ 50 | COc1cncc(-c2ncc(C(C)(O)c3ccc(N4CCC[C@@H](NCC5CCC5)C4)cn3)s2)c1 (single isomer, unassigned) [Compound 165]
≤ 50 | COc1cc(-c2ncc(C(C)c3ccc(N4CCC[C@@H](NCC5CCC5)C4)cn3)s2)c2cn[nH]c2c1 (single isomer, unassigned) [Compound 167]
≤ 50 | CC(n1cnc(-c2cc(=O)n3ccccc3n2)c1)n1ccc(N2CCC[C@@H](NCC3CCC3)C2)cc1=O (single isomer, unassigned) [Compound 170]
≤ 50 | COc1cncc(-c2nnn(C(C)c3ccc(N4CCC[C@@H](NCC5CCC5)C4)nn3)n2)c1 (single isomer, unassigned) [Compound 190]
≤ 50 | CC(n1cc(-c2cncc(N(C)C(F)(F)F)c2)nn1)n1ccc(N2CCC[C@@H](NCC3CC3)C2)cc1=O (single isomer, unassigned) [Compound 236]
50 to 500 | Cc1cncc(-c2cn(C(C)n3ccc(N4CCC[C@@H](NCC5CC5)C4)cc3=O)nn2)n1 (single isomer, unassigned) [Compound 255]
